Assay results from ChEMBL document CHEMBL4033624, “Synthesis and evaluation of adenosine containing 3-arylfuran-2(5H)-ones as tyrosyl-tRNA synthetase inhibitors” (Eur J Med Chem, 2017).
pIC50: −log10 of the molar value. Converted amounts (≈) assume the structure as drawn. One block for each molecule: values may come before it.

Tests used:
[1] = Inhibition of TyrRS (unknown origin) expressed in Escherichia coli using L-[ring-3,5-3H] tyrosine as substrate preincubated for 10 mins followed by substrate addition measured by liquid scintillation counting method; parameters: species or system Bacteria
Escherichia coli = experiment: Antibacterial activity against Escherichia coli ATCC 8739 after 4 to 5 hrs by MTT assay; format: functional
Pseudomonas aeruginosa = experiment: Antibacterial activity against Pseudomonas aeruginosa ATCC 9027 after 4 to 5 hrs by MTT assay; format: functional
Staphylococcus aureus = experiment: Antibacterial activity against Staphylococcus aureus ATCC 6538 after 4 to 5 hrs by MTT assay; format: functional

Compound: CCOc1ccc(C2=C(OCC(=O)NC[C@H]3O[C@@H](n4cnc5c(N)ncnc54)[C@@H]4OC(C)(C)O[C@@H]43)COC2=O)cc1OCC
- pIC50 [1]: < 4.00
- MIC50 (Escherichia coli): > 100 µg/mL
- MIC50 (Pseudomonas aeruginosa): > 100 µg/mL
- MIC50 (Staphylococcus aureus): > 100 µg/mL

Compound: CCOc1ccc(C2=C(OCC(=O)NC[C@H]3O[C@@H](n4cnc5c(N)ncnc54)[C@H](O)[C@@H]3O)COC2=O)cc1OCC
- pIC50 [1]: < 4.00
- MIC50 (Escherichia coli): > 100 µg/mL
- MIC50 (Pseudomonas aeruginosa): > 100 µg/mL
- MIC50 (Staphylococcus aureus): > 100 µg/mL

Compound: CC1(C)O[C@@H]2[C@H](O1)[C@@H](CNC(=O)COC1=C(c3ccc(Br)cc3)C(=O)OC1)O[C@H]2n1cnc2c(N)ncnc21
- pIC50 [1]: 4.03
- MIC50 (Escherichia coli): 98.6 µg/mL (≈ 164 µM)
- MIC50 (Pseudomonas aeruginosa): > 100 µg/mL
- MIC50 (Staphylococcus aureus): > 100 µg/mL

Compound: CC1(C)O[C@@H]2[C@H](O1)[C@@H](CNC(=O)COC1=C(c3ccc(Cl)cc3)C(=O)OC1)O[C@H]2n1cnc2c(N)ncnc21
- pIC50 [1]: 4.64
- MIC50 (Escherichia coli): 20.3 µg/mL (≈ 36.4 µM)
- MIC50 (Pseudomonas aeruginosa): 21.4 µg/mL (≈ 38.4 µM)
- MIC50 (Staphylococcus aureus): 39.6 µg/mL (≈ 71.1 µM)

Compound: CC1(C)O[C@@H]2[C@H](O1)[C@@H](CNC(=O)COC1=C(c3ccc(Cl)c(Cl)c3)C(=O)OC1)O[C@H]2n1cnc2c(N)ncnc21
- pIC50 [1]: 4.48
- MIC50 (Escherichia coli): 60.2 µg/mL (≈ 102 µM)
- MIC50 (Pseudomonas aeruginosa): 63.7 µg/mL (≈ 108 µM)
- MIC50 (Staphylococcus aureus): 90.7 µg/mL (≈ 153 µM)

Compound: Nc1ncnc2c1ncn2[C@@H]1O[C@H](CNC(=O)c2cccc(Br)c2)[C@@H](O)[C@H]1O
- pIC50 [1]: 4.02
- MIC50 (Escherichia coli): > 100 µg/mL
- MIC50 (Pseudomonas aeruginosa): > 100 µg/mL
- MIC50 (Staphylococcus aureus): > 100 µg/mL

Compound: COc1ccc(C2=C(OCC(=O)NC[C@H]3O[C@@H](n4cnc5c(N)ncnc54)[C@@H]4OC(C)(C)O[C@@H]43)COC2=O)cc1OC
- pIC50 [1]: < 4.00
- MIC50 (Escherichia coli): > 100 µg/mL
- MIC50 (Pseudomonas aeruginosa): > 100 µg/mL
- MIC50 (Staphylococcus aureus): > 100 µg/mL

Compound: CC1(C)O[C@@H]2[C@H](O1)[C@@H](CNC(=O)c1cccc(Br)c1)O[C@H]2n1cnc2c(N)ncnc21
- pIC50 [1]: < 4.00
- MIC50 (Escherichia coli): > 100 µg/mL
- MIC50 (Pseudomonas aeruginosa): > 100 µg/mL
- MIC50 (Staphylococcus aureus): > 100 µg/mL

Compound: CC1(C)O[C@@H]2[C@H](O1)[C@@H](CNC(=O)COC1=C(c3ccc(Cl)cc3Cl)C(=O)OC1)O[C@H]2n1cnc2c(N)ncnc21
- pIC50 [1]: 4.08
- MIC50 (Escherichia coli): > 100 µg/mL
- MIC50 (Pseudomonas aeruginosa): 90.9 µg/mL (≈ 154 µM)
- MIC50 (Staphylococcus aureus): > 100 µg/mL

The next lines start with the values.

- MIC50 (Escherichia coli): 0.1 µg/mL (≈ 0.302 µM)
- MIC50 (Pseudomonas aeruginosa): 0.64 µg/mL (≈ 1.93 µM)
Compound: O=C(O)c1cn(C2CC2)c2cc(N3CCNCC3)c(F)cc2c1=O [CIPROFLOXACIN]

- pIC50 [1]: 4.25
- MIC50 (Escherichia coli): 83.6 µg/mL (≈ 155 µM)
- MIC50 (Pseudomonas aeruginosa): 82.8 µg/mL (≈ 153 µM)
- MIC50 (Staphylococcus aureus): > 100 µg/mL
Compound: CC1(C)O[C@@H]2[C@H](O1)[C@@H](CNC(=O)COC1=C(c3cccc(F)c3)C(=O)OC1)O[C@H]2n1cnc2c(N)ncnc21

- pIC50 [1]: 4.58
- MIC50 (Escherichia coli): 29.4 µg/mL (≈ 53.3 µM)
- MIC50 (Pseudomonas aeruginosa): 33.6 µg/mL (≈ 60.9 µM)
- MIC50 (Staphylococcus aureus): 55.4 µg/mL (≈ 100 µM)
Compound: Nc1ncnc2c1ncn2[C@@H]1O[C@H](CNC(=O)COC2=C(c3ccc(Cl)cc3Cl)C(=O)OC2)[C@@H](O)[C@H]1O

- pIC50 [1]: 4.54
- MIC50 (Escherichia coli): 46.6 µg/mL (≈ 83 µM)
- MIC50 (Pseudomonas aeruginosa): 40.5 µg/mL (≈ 72.1 µM)
- MIC50 (Staphylococcus aureus): 75.1 µg/mL (≈ 134 µM)
Compound: Nc1ncnc2c1ncn2[C@@H]1O[C@H](CNC(=O)COC2=C(c3ccc(Br)cc3)C(=O)OC2)[C@@H](O)[C@H]1O

- pIC50 [1]: 4.50
- MIC50 (Escherichia coli): 39.2 µg/mL (≈ 78.3 µM)
- MIC50 (Pseudomonas aeruginosa): 47.4 µg/mL (≈ 94.7 µM)
- MIC50 (Staphylococcus aureus): 72.7 µg/mL (≈ 145 µM)
Compound: Nc1ncnc2c1ncn2[C@@H]1O[C@H](CNC(=O)COC2=C(c3ccc(F)cc3)C(=O)OC2)[C@@H](O)[C@H]1O

- MIC50 (Staphylococcus aureus): 0.57 µg/mL
Compound: CC1(C)S[C@@H]2[C@H](NC(=O)Cc3ccccc3)C(=O)N2[C@H]1C(=O)[O-].[Na+] [PENICILLIN G SODIUM]

- pIC50 [1]: < 4.00
- MIC50 (Escherichia coli): > 100 µg/mL
- MIC50 (Pseudomonas aeruginosa): > 100 µg/mL
- MIC50 (Staphylococcus aureus): > 100 µg/mL
Compound: CC1(C)O[C@@H]2[C@H](O1)[C@@H](CNC(=O)COC1=C(c3ccc(F)cc3)C(=O)OC1)O[C@H]2n1cnc2c(N)ncnc21

- pIC50 [1]: 4.61
- MIC50 (Escherichia coli): 15.8 µg/mL (≈ 28.4 µM)
- MIC50 (Pseudomonas aeruginosa): 25.6 µg/mL (≈ 46 µM)
- MIC50 (Staphylococcus aureus): 30.3 µg/mL (≈ 54.4 µM)
Compound: CC1(C)O[C@@H]2[C@H](O1)[C@@H](CNC(=O)COC1=C(c3ccccc3Cl)C(=O)OC1)O[C@H]2n1cnc2c(N)ncnc21

- pIC50 [1]: < 4.00
- MIC50 (Escherichia coli): > 100 µg/mL
- MIC50 (Pseudomonas aeruginosa): > 100 µg/mL
- MIC50 (Staphylococcus aureus): > 100 µg/mL
Compound: COc1ccc(C2=C(OCC(=O)NC[C@H]3O[C@@H](n4cnc5c(N)ncnc54)[C@H](O)[C@@H]3O)COC2=O)cc1OC
